# Results as given in US20260248789A1, “CONTROLLED RELEASE PDE10A FORMULATIONS” (Merck Sharp & Dohme LLC, priority 2023, published 2026).
# Legend:
# [1] = Study 2: multiple-dose titration study, PK of CR formulation; assay type: in vivo; settings: human, plasma, oral, highest dose level in Study 2 (48 mg, CR formulation, schizophrenia)
# Method: (§1) Study 2 was designed similarly to Study 1; participants were administered CR Release formulations of Compound A/placebo as monotherapy in participants with schizophrenia (n=16) and healthy participants (n=16), or as adjunctive therapy (n=17) (schizophrenia participants only) and titrated from 4 mg to 24 mg (see Table 3 for illustration of PK at the 24 mg dose level as monotherapy in healthy adults). In Study 2 an additional panel of participants with schizophrenia was administered CR formulations of Compound A/placebo as monotherapy and titrated from 8 mg to 48 mg (n=26)(see Table 4 for illustration of PK at the 48 mg dose level).
# [2] = Study 3: tolerability / adverse events of CR formulation; assay type: in vivo, human
# Method: In Study 3, one panel of participants [(n=8)—monotherapy in adult participants with schizophrenia] were titrated from 16 mg to 24 mg or placebo, while in another panel participants (n=18) received 24 mg/placebo without titration (Table 5) to determine if titration was required for tolerability.
# There were 2 events of transient dystonia following the first dose of 16 mg, but both events responded to treatment and participants continued dosing without recurrence. […] Other adverse events (i.e., depression, anxiety and stress) across all three studies were mostly mild or moderate in intensity and there was no clear dose-related increase in specific events (Table 6).
# [3] = Study 7: tolerability in healthy subjects 8-72 mg; assay type: in vivo, human; settings: Study 7, healthy subjects (n=12) dosed 8 mg to 72 mg; up to and including doses of 48 mg
# From the text: Plasma exposures in this study were generally similar those observed in the other multiple dose studies reported here (data not shown).
# [4] = Study 2: tolerability of CR formulation; assay type: in vivo, human; settings: Study 2, CR formulation titrated from 4 mg to 24 mg and from 8 mg to 48 mg
# Method: as §1
# [5] = 24 mg (Day 1-7), Panel B, participants with schizophrenia, 14 in population
smiles,measurement,setting,value
"Cc1ccc([C@H]2C[C@@H]2COc2cc(NCc3nnc(C)s3)nc(C)n2)nc1 [Compound A, 2-methyl-N-((5-methyl-1,3,4-thiadiazol-2-yl)methyl)-6-(((1S,2S)-2-(5-methylpyridin-2-yl)cyclopropyl)methoxy)pyrimidin-4-amine]",Cmax,[1],~1800 nM
same,concentration at 24 h,[1]; read-out: C24,~1200 nM
same,"Alanine aminotransferase increased, (%)",[2]; [5],(7.1) %
same,"Decreased appetite, (%)",[2]; [5],(7.1) %
same,"Hypertonia, (%)",[2]; [5],(7.1) %
same,"Investigations (non-serious related AE), (%)",[2]; [5],(7.1) %
same,"Metabolism and nutrition disorders, (%)",[2]; [5],(7.1) %
same,"Musculoskeletal and connective tissue disorders, (%)",[2]; [5],(7.1) %
same,"Musculoskeletal stiffness, (%)",[2]; [5],(7.1) %
same,"Nervous system disorders, (%)",[2]; [5],(21.4) %
same,"Participants with no Non-Serious Related Adverse Event, (%)",[2]; [5],(64.3) %
same,"Participants with one or more Non-Serious Related Adverse Event, (%)",[2]; [5],(35.7) %
same,"Somnolence, (%)",[2]; [5],(14.3) %
same,tolerability,"[2]; Study 3, dosing initiated at 16 mg or 24 mg with no titration",generally well tolerated
same,dystonia,"[2]; Study 3, dosing initiated at 24 mg without titration",No events of dystonia were reported
same,events of transient dystonia,"[2]; Study 3, following the first dose of 16 mg",2
same,dystonia,[3],no dystonia was reported
same,dystonia,[4],no Compound A-related dystonia was observed
